According to patent publication US11945799B2, “4-ethynylpyridine derivatives useful as GCN2 inhibitors” (IP2IPO INNOVATIONS LIMITED, priority 2020, dated 2024):
Where two headings read alike, the source gives them in different places.

Experiments:
[1] = Kinetic solubility in PBS buffer pH 7.4; format: physicochemical; settings: for solubility kinetic at 90 min: aqueous buffer, kinetic from dmso stock, PBS buffer pH 7.4, 90 minutes at room temperature, from 10 mM DMSO stock
Method: The kinetic solubility assay investigates a solubility based on the amount of material which remains in solution after a precipitation process. […] Assay is performed using Multiscreen Vacuum Manifold. A buffer of interest (in standard protocol PBS buffer at pH=7.4 is used) is spiked with stock solution and incubated for 90 minutes at room temperature. After that time solution/suspension is filtrated. The concentration of each compound is determined on the base of prepared calibration curve using UV-VIS spectrophotometry method. The assay is made in triplicate.
Buffer of interest: 0.24 g of KH2PO4, 1.44 g of Na2HPO4, 0.2 g of KCl and 8 g NaCl and dissolve in 1 L distilled H2O; adjust pH to appropriate value (pH 7.4). 190 μl of buffer of interest was dispensed into the wells of a 96 well filter plate, followed by 10 μl of compound (10 mM stock solution in DMSO). The plate was shaken gently at room temperature for 90 minutes at 500 rpm using a BioSan, Plate Shaker-Thermostat, PST-60 HL-4. After 90 minutes, the plate was filtered using a vacuum manifold and vacuum pump. 100 μl of each filtrate and 100 μl acetonitrile was transferred to a 96 well UV-visible light transparent plate and the UV-visible absorption spectrum was measured using a Biotek Synergy 2 multiplate reader from 250-500 nm, interval range 10 nm. The amount of test compound was calculated using a calibration curve prepared by serial dilution of compounds in equivalent amounts of DMSO and acetonitrile.

[2] = molecular target: T1, MAP2K5 (Homo sapiens, UniProt Q13163); settings: KINOMEscan, kinase MAP2K5; as reported in Nakamura et al (2018); cited from earlier work
T1 sequence (Q13163 1-448): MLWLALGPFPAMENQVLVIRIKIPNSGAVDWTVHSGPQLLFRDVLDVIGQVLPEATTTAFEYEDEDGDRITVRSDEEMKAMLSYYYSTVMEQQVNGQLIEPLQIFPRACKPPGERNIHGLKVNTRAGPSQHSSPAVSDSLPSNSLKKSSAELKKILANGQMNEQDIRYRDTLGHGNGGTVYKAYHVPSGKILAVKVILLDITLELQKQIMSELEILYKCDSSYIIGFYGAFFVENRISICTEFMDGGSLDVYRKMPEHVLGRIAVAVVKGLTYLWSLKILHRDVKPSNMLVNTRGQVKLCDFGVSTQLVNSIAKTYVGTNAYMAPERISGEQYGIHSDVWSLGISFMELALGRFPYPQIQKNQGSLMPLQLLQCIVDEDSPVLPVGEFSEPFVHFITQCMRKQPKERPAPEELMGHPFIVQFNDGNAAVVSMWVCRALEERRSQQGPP

[3] = system: GCN2; settings: KINOMEscan, kinase GCN2; as reported in Nakamura et al (2018); cited from earlier work
[4] = molecular target: STK10 (Homo sapiens, UniProt O94804); settings: KINOMEscan, kinase STK10; as reported in Nakamura et al (2018); cited from earlier work
STK10, sequence (O94804 whole entry): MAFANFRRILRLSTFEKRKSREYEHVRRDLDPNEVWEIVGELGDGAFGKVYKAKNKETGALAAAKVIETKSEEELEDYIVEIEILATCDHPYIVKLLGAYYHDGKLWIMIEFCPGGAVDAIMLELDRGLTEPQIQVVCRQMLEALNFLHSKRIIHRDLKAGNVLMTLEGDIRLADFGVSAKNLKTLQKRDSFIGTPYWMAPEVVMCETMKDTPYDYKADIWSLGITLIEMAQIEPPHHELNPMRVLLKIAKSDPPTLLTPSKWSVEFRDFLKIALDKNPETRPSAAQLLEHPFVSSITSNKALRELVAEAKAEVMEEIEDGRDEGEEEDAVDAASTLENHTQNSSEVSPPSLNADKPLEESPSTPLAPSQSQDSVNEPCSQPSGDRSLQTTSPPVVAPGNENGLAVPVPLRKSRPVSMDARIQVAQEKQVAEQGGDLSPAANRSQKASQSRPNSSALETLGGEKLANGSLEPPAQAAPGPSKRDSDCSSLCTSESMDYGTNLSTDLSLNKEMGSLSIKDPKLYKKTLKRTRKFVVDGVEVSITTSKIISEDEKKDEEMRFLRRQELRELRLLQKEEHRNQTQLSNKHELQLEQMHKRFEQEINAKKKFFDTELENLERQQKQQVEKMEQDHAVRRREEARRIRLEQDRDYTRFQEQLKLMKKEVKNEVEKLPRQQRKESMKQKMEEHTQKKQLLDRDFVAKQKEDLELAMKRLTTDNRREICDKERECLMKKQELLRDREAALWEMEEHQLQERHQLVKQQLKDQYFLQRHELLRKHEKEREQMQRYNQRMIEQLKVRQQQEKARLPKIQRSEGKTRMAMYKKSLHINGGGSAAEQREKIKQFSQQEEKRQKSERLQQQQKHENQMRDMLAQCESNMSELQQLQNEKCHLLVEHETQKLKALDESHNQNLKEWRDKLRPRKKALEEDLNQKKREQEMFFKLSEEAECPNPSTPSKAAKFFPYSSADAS

[5] = molecular target: ZAK (Homo sapiens, UniProt Q9NYL2); settings: KINOMEscan, kinase ZAK; as reported in Nakamura et al (2018); cited from earlier work
ZAK, sequence (Q9NYL2 whole entry): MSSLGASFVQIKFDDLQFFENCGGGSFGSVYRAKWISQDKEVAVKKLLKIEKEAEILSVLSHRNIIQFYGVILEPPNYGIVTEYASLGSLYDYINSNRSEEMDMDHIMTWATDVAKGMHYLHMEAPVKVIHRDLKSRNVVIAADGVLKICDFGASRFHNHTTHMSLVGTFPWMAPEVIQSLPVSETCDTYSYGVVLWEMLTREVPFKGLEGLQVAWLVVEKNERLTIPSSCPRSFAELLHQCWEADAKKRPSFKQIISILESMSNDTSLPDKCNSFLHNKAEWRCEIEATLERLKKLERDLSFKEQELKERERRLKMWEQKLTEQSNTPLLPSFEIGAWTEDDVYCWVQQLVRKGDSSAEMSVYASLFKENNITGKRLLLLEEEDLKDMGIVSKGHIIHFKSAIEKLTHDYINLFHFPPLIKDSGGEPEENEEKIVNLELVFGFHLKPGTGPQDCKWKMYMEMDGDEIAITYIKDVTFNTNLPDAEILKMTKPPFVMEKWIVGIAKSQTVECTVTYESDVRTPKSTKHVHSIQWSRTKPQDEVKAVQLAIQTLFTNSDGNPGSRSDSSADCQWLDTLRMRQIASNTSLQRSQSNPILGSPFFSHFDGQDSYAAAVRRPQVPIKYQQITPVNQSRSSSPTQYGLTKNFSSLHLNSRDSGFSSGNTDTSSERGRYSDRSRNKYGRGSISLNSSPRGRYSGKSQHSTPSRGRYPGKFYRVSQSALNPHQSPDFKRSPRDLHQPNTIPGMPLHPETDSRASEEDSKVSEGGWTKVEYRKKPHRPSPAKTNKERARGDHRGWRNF

[6] = molecular target: T2, full-length human GCN2 enzyme (Homo sapiens, UniProt Q9P2K8); assay: GCN2 enzyme inhibition, LanthaScreen TR-FRET Kinase Activity assay (10 μM and 300 μM ATP); format: biochemical; settings: for IC50 / Ki: mean of replicate assays
T2 construct: purchased Carna Bioscience
T2 sequence (Q9P2K8 whole entry): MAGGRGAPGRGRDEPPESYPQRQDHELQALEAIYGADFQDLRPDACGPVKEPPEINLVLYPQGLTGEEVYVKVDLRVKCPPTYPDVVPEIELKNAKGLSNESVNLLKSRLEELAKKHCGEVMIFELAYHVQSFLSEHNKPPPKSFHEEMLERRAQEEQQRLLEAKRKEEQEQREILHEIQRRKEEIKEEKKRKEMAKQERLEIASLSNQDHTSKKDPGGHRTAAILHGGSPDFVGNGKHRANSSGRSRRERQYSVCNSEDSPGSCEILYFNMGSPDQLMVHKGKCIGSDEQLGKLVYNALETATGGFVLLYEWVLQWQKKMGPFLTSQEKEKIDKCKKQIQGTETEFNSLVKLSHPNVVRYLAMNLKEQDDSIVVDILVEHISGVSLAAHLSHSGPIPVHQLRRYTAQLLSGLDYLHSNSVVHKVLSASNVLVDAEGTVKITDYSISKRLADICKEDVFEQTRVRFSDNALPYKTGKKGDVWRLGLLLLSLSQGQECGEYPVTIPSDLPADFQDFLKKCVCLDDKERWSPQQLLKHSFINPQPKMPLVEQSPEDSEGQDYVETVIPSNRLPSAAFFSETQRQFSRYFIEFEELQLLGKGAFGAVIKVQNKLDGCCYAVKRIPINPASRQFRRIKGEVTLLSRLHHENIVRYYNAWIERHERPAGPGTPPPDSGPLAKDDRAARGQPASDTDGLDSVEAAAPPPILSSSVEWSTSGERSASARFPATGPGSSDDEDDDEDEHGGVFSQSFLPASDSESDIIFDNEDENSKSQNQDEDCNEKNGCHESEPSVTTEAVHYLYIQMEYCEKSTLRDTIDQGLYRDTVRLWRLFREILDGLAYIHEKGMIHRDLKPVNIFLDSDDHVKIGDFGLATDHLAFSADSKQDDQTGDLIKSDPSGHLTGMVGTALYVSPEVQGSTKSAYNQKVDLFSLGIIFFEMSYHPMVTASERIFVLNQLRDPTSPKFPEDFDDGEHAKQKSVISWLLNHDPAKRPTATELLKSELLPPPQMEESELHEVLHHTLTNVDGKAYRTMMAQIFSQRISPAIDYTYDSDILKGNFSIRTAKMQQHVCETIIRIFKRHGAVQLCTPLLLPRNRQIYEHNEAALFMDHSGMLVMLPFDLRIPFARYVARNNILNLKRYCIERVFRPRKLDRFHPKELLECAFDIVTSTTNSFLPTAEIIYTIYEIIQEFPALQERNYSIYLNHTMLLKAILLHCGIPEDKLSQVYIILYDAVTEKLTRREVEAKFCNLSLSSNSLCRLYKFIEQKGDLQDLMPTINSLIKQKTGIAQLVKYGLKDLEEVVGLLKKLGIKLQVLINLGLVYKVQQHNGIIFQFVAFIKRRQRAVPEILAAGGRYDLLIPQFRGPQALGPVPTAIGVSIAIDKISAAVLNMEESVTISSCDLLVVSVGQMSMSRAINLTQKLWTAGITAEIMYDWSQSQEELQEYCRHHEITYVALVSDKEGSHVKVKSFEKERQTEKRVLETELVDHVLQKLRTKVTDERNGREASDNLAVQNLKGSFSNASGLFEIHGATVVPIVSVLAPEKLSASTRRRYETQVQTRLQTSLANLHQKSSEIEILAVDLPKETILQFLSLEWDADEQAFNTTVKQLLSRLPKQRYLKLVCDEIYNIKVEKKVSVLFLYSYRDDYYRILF
Method: Biological and Pharmacokinetic Testing (a) GCN2 Enzyme Inhibition (10 μM and 300 μM Assays) Assay Protocol Overview:
The inhibitory activity of the Example compounds towards GCN2 enzyme was measured according to the description below, using a LanthaScreen TR-FRET (Time Resolved Fluorescence Resonance Energy Transfer) Kinase Activity assay distributed by ThermoFisher Scientific.
The full-length human GCN2 enzyme (UniProt accession number Q9P2K8) was used for all experiments (Carna Bioscience). The TR-FRET pair was composed of GFP-eIF2α and LanthaScreen Terbium-labeled anti-peIF2α (pSer52) Antibody.
Each example compound was dissolved in DMSO (0.15 mM) and dispensed in a 384-well plate by a D300 dispenser (Tecan) to a final concentration range 3000-0.13 nM using the logarithmic dilution mode in 2 replicates. Full inhibition (3000 nM commercial reference inhibitor) and DMSO vehicle control wells were also included on the same plate. All volumes were normalized to the final DMSO concentration of 2% of the reaction volume. Next, 5 μL of H2O was added to each well of the plate.
The enzyme mixture was prepared to obtain the following concentrations: • GCN2—30 nM • unloaded tRNA—0.3 nM • HEPES (pH=7.0)—100 mM • MgCl2—20 mM; MnCl2—10 mM
The mixture was applied by adding 5 μL to each well of the plate. The enzyme and the tested compound were then incubated at room temperature for 20 min while shaking at 450 rpm.
The substrate mixture was prepared to obtain the following concentrations: • GFP-eIF2α—240 nM • ATP—900 μM or 30 μM • HEPES (pH=7.0)—50 mM • MgCl2—10 mM • MnCl2—5 mM.
The mixture was applied by adding 5 μL to each well of the plate. Thus, the final concentrations of the 15 μL reaction mixture were as follows: • GCN2—10 nM • unloaded tRNA—0.1 nM • GFP-eIF2α—80 nM • ATP—300 μM or 10 μM • HEPES (1 M, pH=7.0)—50 mM • MgCl2—10 mM • MnCl2—5 mM.
The reaction was allowed to proceed at room temperature for 30 min while shaking at 450 rpm.
The antibody mixture was prepared to obtain the following concentrations: • Na2EDTA·2H2O—40 mM, in TR-FRET Dilution Buffer (Life technologies) • Tb—anti-peIF2a antibodies—4 nM.
The mixture was applied by adding 15 μL to each well. The plate was then incubated at room temperature for 60 min while shaking at 450 rpm and then read using Tecan Spark reader using specific TR-FRET filters.
The analysis of the GFP/Tb fluorescence results was conducted with GraphPad Prism to determine IC50 for each of the example compounds using 4-parameter model: log(inhibitor) vs. response-variable slope. IC50 and K, values were calculated in the usual way. The assay was carried out between 1 and 15 times. The results in the table below are the mean results from replicate assays for the compound in question, where applicable.

[7] = system: GCN2; assay: KINOMEscan competition binding assay, GCN2; parameters: species or system human; settings: kinase GCN2
Method: (§1) Compounds were tested for activity against off-target kinases using the KINOMEscan™ screening platform, which employs a novel and proprietary active site-directed competition binding assay to quantitatively measure interactions between test compounds and hundreds of human kinases and disease relevant mutant variants.
(§2) For most assays, kinase-tagged T7 phage strains were grown in parallel in 24-well blocks in an E. coli host derived from the BL21 strain. E. coli were grown to log-phase and infected with T7 phage from a frozen stock (multiplicity of infection=0.4) and incubated with shaking at 32° C. until lysis (90-150 minutes). The lysates were centrifuged (6,000×g) and filtered (0.2 μm) to remove cell debris. The remaining kinases were produced in HEK-293 cells and subsequently tagged with DNA for qPCR detection. […] The liganded beads were blocked with excess biotin and washed with blocking buffer (SeaBlock (Pierce), 1% BSA, 0.05% Tween 20, 1 mM DTT) to remove unbound ligand and to reduce non-specific phage binding. […] Test compounds were prepared as 40× stocks in 100% DMSO and directly diluted into the assay. All reactions were performed in polypropylene 384-well plates in a final volume of 0.02 ml. […] The kinase concentration in the eluates was measured by qPCR.

[8] = molecular target: off-target kinases; assay: KINOMEscan kinase selectivity panel; format: binding, human; settings: kinases other than those at <0.5%
Method: as §1, §2

[9] = molecular target: T3, MEK5 (Homo sapiens, UniProt Q13163); assay: KINOMEscan competition binding assay, MEK5; settings: kinase MEK5
T3 construct: host or cells: E. coli BL21-derived (T7 phage) or HEK-293
T3 sequence (Q13163 1-448): T1 sequence (Q13163 1-448)
Method: as §1, §2

[10] = read-out: GCN2 IC50 (nM) 10 uM ATP, 10 uM ATP
[11] = read-out: GCN2 IC50 (nM) 300 uM ATP, 300 uM ATP
[12] = read-out: GCN2 Ki (nM) 10 uM ATP, 10 uM ATP
[13] = read-out: GCN2 Ki (nM) 300 uM ATP, 300 uM ATP

SMILES | solubility kinetic at 90 min [1] | % Control [2] | % Control [3] | % Control [4] | % Control [5] | IC50 [6, 10] | IC50 [6, 11] | Ki [6, 12] | Ki [6, 13] | % Control [7] | kinetic solubility (in words) [1] | Kinases with % Control <5% [8] | GCN2 inhibitory activity (in words) [6] | % Control [9]
COc1ncc(Cl)cc1S(=O)(=O)Nc1ccc(F)c(C#Cc2cnc(N)nc2)c1F [Comp Ex 1, reference compound] | 4.7 µg/mL | <5% | <0.5% | <5% | <5% | 5.9 nM | 59.2 nM | 1.9 nM | 0.9 nM |  |  |  |  | 
COc1ncc(Cl)cc1S(=O)(=O)Nc1nccc(C#Cc2cnc(N)nc2)c1F [Example 1, N-{4-[2-(2-aminopyrimidin-5-yl)ethynyl]-3-fluoropyridin-2-yl}-5-chloro-2-methoxypyridine-3-sulfonamide] | 218 µg/mL |  |  |  |  | 7.2 nM | 103 nM | 2.3 nM | 1.6 nM | <0.5% | good | None | strong | 
COc1ncc(Cl)cc1S(=O)(=O)Nc1nccc(C#Cc2cnc3[nH]ncc3c2)c1F [Example 3, 5-chloro-N-[3-fluoro-4-(2-{1H-pyrazolo[3,4-b]pyridin-5-yl}ethynyl)pyridin-2-yl]-2-methoxypyridine-3-sulfonamide] | 229 µg/mL |  |  |  |  | 3.5 nM | 26.5 nM | 1.1 nM | 0.6 nM | <0.5% | good |  | strong | <5%
COc1ncc(Cl)cc1S(=O)(=O)Nc1nccc(C#Cc2cnc3[nH]c(=O)[nH]c3c2)c1F [Example 32, 5-chloro-N-[3-fluoro-4-(2-{2-oxo-1H,2H,3H-imidazo[4,5-b]pyridin-6-yl}ethynyl)pyridin-2-yl]-2-methoxypyridine-3-sulfonamide] | 40.1 µg/mL |  |  |  |  |  | 48.1 nM |  | 0.7 nM |  |  |  |  | 
COc1ncc(Cl)cc1S(=O)(=O)Nc1nccc(C#Cc2cnc3[nH]nc(C)c3c2)c1F [Example 33, 5-chloro-N-[3-fluoro-4-(2-{3-methyl-1H-pyrazolo[3,4-b]pyridin-5-yl}ethynyl)pyridin-2-yl]-2-methoxypyridine-3-sulfonamide] | 245 µg/mL |  |  |  |  | 4.2 nM | 21.7 nM | 1.3 nM | 0.3 nM |  |  |  |  | 
COc1ncc(Cl)cc1S(=O)(=O)Nc1nccc(C#Cc2cnc(N)nc2C)c1F [Example 34, N-{4-[2-(2-amino-4-methylpyrimidin-5-yl)ethynyl]-3-fluoropyridin-2-yl}-5-chloro-2-methoxypyridine-3-sulfonamide] | 238 µg/mL |  |  |  |  |  | 658 nM |  | 10 nM |  |  |  |  | 
COc1ncc(Cl)cc1S(=O)(=O)Nc1nccc(C#Cc2cnc3[nH]c(=O)n(C)c3c2)c1F [Example 36, 5-chloro-N-[3-fluoro-4-(2-{1-methyl-2-oxo-1H,2H,3H-imidazo[4,5-b]pyridin-6-yl}ethynyl)pyridin-2-yl]-2-methoxypyridine-3-sulfonamide] | 240 µg/mL |  |  |  |  |  | 182 nM |  | 2.8 nM |  |  |  |  | 
COc1ncc(Cl)cc1S(=O)(=O)Nc1nccc(C#Cc2cnc3[nH]nc(OC)c3c2)c1F [Example 37, 5-chloro-N-[3-fluoro-4-(2-{3-methoxy-1H-pyrazolo[3,4-b]pyridin-5-yl}ethynyl)pyridin-2-yl]-2-methoxypyridine-3-sulfonamide] | > 244 µg/mL |  |  |  |  |  | 20.9 nM |  | 0.3 nM |  |  |  |  | 
COc1ncc(Cl)cc1S(=O)(=O)Nc1nccc(C#Cc2cnc(N)c3nccnc23)c1F [Example 38, N-[4-(2-{5-aminopyrido[3,4-b]pyrazin-8-yl}ethynyl)-3-fluoropyridin-2-yl]-5-chloro-2-methoxypyridine-3-sulfonamide] | 245 µg/mL |  |  |  |  |  | 55.3 nM |  | 0.8 nM |  |  |  |  | 
